Measurements from patent US20120321565A1, “PHARMACEUTICAL COMPOSITIONS COMPRISING 17ALPHA-FURANYLESTERS OF 17BETA-CARBOTHIATE ANDROSTANES WITH A MUSCARINIC RECEPTOR ANTAGONIST” (GlaxoSmithKline Intellectual Property Management Limited, priority 2002, published 2012).

How the values were obtained:
[1] = Pharmacokinetics after intravenous administration in the anaesthetised pig; format: in vivo; settings: for clearance, compound (I) vs fluticasone propionate (in words): intravenous 0.1 mg/kg; for pharmacokinetic parameters, compound (I) vs fluticasone propionate (in words): intravenous mixture of the two compounds at 0.1 mg/kg
Text: The clearance of these two glucocorticoids is similar is this experimental pig model.

NFκB = assay: Transrepression (NFκB): firefly luciferase NFκB reporter in TNFα-stimulated A549 cells; format: cell-based; settings: Homo sapiens, TNFα 0.5 ng/ml, read-out: Transrepression (NFκB) ED50
Text: The glucocorticoid receptor (GR) can function in at least two distinct mechanisms, by upregulating gene expression through the direct binding of GR to specific sequences in gene promotors, and by downregulating gene expression that is being driven by other transcription factors (such as NFκB or AP-1) through their direct interaction with GR.
The first cell line contains the firefly luciferase reporter gene under the control of a synthetic promoter that specifically responds to activation of the transcription factor NFκB when stimulated with TNFα. The second cell line contains the renilla luciferase reporter gene under the control of a synthetic promotor that comprises 3 copies of the consensus glucocorticoid response element, and which responds to direct stimulation by glucocorticoids. Simultaneous measurement of transactivation and transrepression was conducted by mixing the two cell lines in a 1:1 ratio in 96 well plate (40,000 cells per well) and growing overnight at 37° C. Test compounds were dissolved in DMSO, and added to the cells at a final DMSO concentration of 0.7%. After incubation for 1 h 0.5 ng/ml TNFα (R&D Systems) was added and after a further 15 hours at 37° C., the levels of firefly and renilla luciferase were measured using the Packard Firelite kit following the manufacturers' directions. Dose response curves were constructed from which EC50 values were determined.

glucocorticoid receptor = molecular target: T1, glucocorticoid receptor (Homo sapiens, UniProt P04150); assay: In vitro functional glucocorticoid assays (metabolite vs parent); format: cell-based
T1 sequence (P04150 1-777): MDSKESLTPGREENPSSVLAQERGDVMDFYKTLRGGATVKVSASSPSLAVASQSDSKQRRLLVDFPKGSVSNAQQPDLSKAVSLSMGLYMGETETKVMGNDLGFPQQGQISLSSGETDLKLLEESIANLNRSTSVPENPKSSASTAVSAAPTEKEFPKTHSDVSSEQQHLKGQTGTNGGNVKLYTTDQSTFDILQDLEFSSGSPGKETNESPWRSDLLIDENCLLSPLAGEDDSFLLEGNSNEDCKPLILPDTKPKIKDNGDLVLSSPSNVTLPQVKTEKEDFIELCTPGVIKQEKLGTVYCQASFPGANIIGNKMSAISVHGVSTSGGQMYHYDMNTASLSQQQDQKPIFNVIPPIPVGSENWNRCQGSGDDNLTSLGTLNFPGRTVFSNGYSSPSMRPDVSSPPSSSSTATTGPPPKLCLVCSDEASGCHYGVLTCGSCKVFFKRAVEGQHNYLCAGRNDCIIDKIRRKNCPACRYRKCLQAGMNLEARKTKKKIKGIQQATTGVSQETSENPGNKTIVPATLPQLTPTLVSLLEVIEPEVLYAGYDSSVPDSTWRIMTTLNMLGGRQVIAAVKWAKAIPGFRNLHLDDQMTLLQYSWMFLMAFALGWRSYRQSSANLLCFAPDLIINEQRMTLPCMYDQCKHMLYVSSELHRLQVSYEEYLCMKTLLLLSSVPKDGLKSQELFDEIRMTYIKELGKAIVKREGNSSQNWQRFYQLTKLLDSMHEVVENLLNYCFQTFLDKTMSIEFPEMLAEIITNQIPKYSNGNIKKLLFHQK
Text: Compound (I) undergoes highly efficient hepatic metabolism to yield the 17-β carboxylic acid (X) as the sole major metabolite in rat and human in vitro systems.

Structure (SMILES)	clearance, compound (I) vs fluticasone propionate (in words) [1]	pharmacokinetic parameters, compound (I) vs fluticasone propionate (in words) [1]	EC50 (NFκB)	fold less active than the parent compound (glucocorticoid receptor)
C[C@@H]1CC2C3C[C@H](F)C4=CC(=O)C=C[C@]4(C)[C@@]3(F)[C@@H](O)C[C@]2(C)[C@@]1(OC(=O)c1ccco1)C(=O)SCF (stereo partly drawn) [Compound of Formula (I), 6α, 9α-Difluoro-17α-[(2-furanylcarbonyl)oxy]-11β-hydroxy-16α-methyl-3-oxo-androsta-1,4-diene-17β-carbothioic acid S-fluoromethyl ester]	similar	the same		
CCC(=O)O[C@]1(C(=O)SCF)[C@H](C)C[C@H]2[C@@H]3C[C@H](F)C4=CC(=O)C=C[C@]4(C)[C@@]3(F)[C@@H](O)C[C@@]21C [Fluticasone propionate, 6α, 9α-Difluoro-17α-(1-oxopropoxy)-11β-hydroxy-16α-methyl-3-oxo-androsta-1,4-diene-17β-carbothioic acid S-fluoromethyl ester, reference compound]	similar	the same		
C[C@@H]1CC2C3C[C@H](F)C4=CC(=O)C=C[C@]4(C)[C@@]3(F)[C@@H](O)C[C@]2(C)[C@@]1(OC(=O)c1ccco1)C(=O)O (stereo partly drawn) [Metabolite (X)]			> 1 µM	> 1000 fold
